According to patent US20230203485A1, “METHODS FOR MODULATING MHC-I EXPRESSION AND IMMUNOTHERAPY USES THEREOF” (Dana-Farber Cancer Institute, Inc., priority 2020, published 2023):

Columns and labels:
surface HLA-I = test: USP7 inhibitor treatment of MKL-1 p53-WT control and p53-KO lines, surface HLA I by flow cytometry; assay type: cell-based, human
Experimental: For MCC-301 USP7 inhibitor experiments, two and a half million MCC cells were plated in a T25 flask and incubated with the USP7 inhibitor XL177A and control enantiomer XL177B at 10 μM, 1 μM, 100 nM, and 10 nM. Cells were incubated for 3 to 4 days. Post incubation, one million cells were treated with Versene (Gibco) to dissociate cell clusters. Surface Fc receptors were blocked with 5 μL Human TruStain FcX (Biolegend #422302). Surface HLA-I was stained with 5 μL of Pan HLA-Class I antibody (Clone W6/32, Santa Cruz Biotechnologies) for 30 minutes in dark at 4° C. Cells were washed with PBS and fixed with 4% paraformaldehyde fixation buffer (Biolegend). Cells were analyzed on a BD LSRFortessa. MCC-301 data are representative of 4 independent experiments. To perform statistical analysis, for each cell line, one-way ANOVA was first performed on the MFIs of the DMSO group and all experimental groups. Then, individual Welch t-tests were performed for each concentration, comparing the fold-changes of MFI (inhibitor)/mean MFI (DMSO control) between XL177A and XL177B.
For MKL-1 USP7 inhibitor experiments, p53-WT control lines (WT, scrambled, AAVS1) and three p53-KO lines were treated with USP7 inhibitors and assessed by flow cytometry for surface HLA I as described above for MCC-301.

[1] = system: MKL-1 control or p53 KO cells; test: Cell cycle analysis (EdU/DAPI flow cytometry); assay type: cell-based, human; details: MKL-1 TP53-WT and TP53-KO, 100 nM, three days
Experimental: 1 million MKL-1 control or p53 KO cells were plated and treated with DMSO, XL177A (100 nM) or XL177B (100 nM) for three days. During the last hour of the three-day treatment, the cells were pulsed with 10 μM EdU nucleotide. The cells were collected by centrifugation, treated with Accutase™ (Stem Cell Technologies) to break apart clumps, washed with PBS and fixed using 4% Formaldehyde solution in PBS at Room temperature for 15 mins. Cells were washed with 1% BSA in PBS and resuspended in 70% ice cold ethanol and incubated at −20° C. overnight for additional fixing and permeabilization. The cells were stored in 70% ethanol at −20° C. until the day the data was acquired. On the day of data acquisition, the cells were collected by centrifugation and washed twice with PBS. The incorporated EdU in the cells were labeled with a CLICK reaction cocktail (1 mM CuSO4, 100 μM THPTA, 100 mM sodium ascorbate, and 2.2 μM Alexa 647 azide in PBS) at room temperature with rocking for 30 minutes. The samples were then washed with 1% BSA in PBS once followed by two washes with PBS and incubated with a 1 μg/ml DAPI, 100 ng/ml RNase A solution for one hour at Room temperature to stain the DNA. The samples were then passed through strainer tubes and analyzed using a BD Fortessa analyzer. The flow cytometry data was analyzed using the FlowJo Software. […]

[2] = system: HLA-I-bound peptidomes of MCC-301 cells; test: HLA-I-bound immunopeptidome of USP7 inhibitor treated MCC-301 cells (TMT LC-MS/MS); assay type: cell-based, human
Experimental: Up to 40 million or 0.2 g of MCC cells were immunoprecipitated. Briefly, MCC cells were harvested and lysed in ice-cold lysis buffer containing […] (pH 8.0), 1 mM EDTA (pH 8.0), 0.1M sodium chloride, Triton X-100, 0.06M octyl β-d-glucopyranoside, 100 U/mL DNAse I, 1 mM phenylmethanesulfonyl fluoride (all from Sigma Aldrich), and protease inhibitor cocktail (Roche Diagnostics). Cell lysate was centrifuged at 12,700 rpm at 4° C. for 22 min. Lysate supernatant was coupled with Gammabind Plus sepharose beads (GE Healthcare) and incubated with 10 μg of HLA-I antibody (Clone W6/32, Santa Cruz Biotechnologies) at 4° C. under rotary agitation for 3 h. After incubation, the lysate-bead-antibody mixture was briefly centrifuged and the supernatant was discarded. Beads were washed with lysis buffer, consisting of wash buffer containing 40 mM Tris (pH 8.0), 1 mM EDTA (pH 8.0), 0.1M sodium chloride, 0.06M octyl β-d-glucopyranoside, and 20 mM Tris buffer, without protease inhibitors. Gel loading tips (Fisherbrand) were used to remove as much fluid from beads as possible. Peptides of up to three immunoprecipitations were combined, acid eluted, and analyzed using LC/MS-MS. Briefly, peptides were resuspended in 3% acetonitrile with 5% formic acid and loaded onto an analytical column (20-30 cm with 1.9 μm C18 Reprosil beads, Dr. Maisch HPLC GmbH); packed in-house). Peptides were eluted in a 6-30% gradient (EasyLC 1000 or 1200, Thermo Fisher Scientific) and analyzed on a QExactive Plus, Fusion Lumos, or Orbitrap Exploris 480 (Thermo Fisher Scientific). For Lumos measurements, peptides were also subjected to fragmentation if they were singly charged. For Orbitrap Exploris measurements (2 immunoprecipitations pooled, +/−IFN-γ, FIG. 3) and detection of the large T antigen peptide (3 immunoprecipitations of the MCC-367 cell line treated with IFN-γ) peptides were further fractionated using stage tip basic reverse phase separation with 2 punches of SDB-XC material (Empore 3M) and increasing concentrations of acetonitrile (5%, 10% and 30% in 0.1% NH4OH, pH 10). Fractions were analyzed on a Fusion Lumos or Orbitrap Exploris 480 equipped with a FAIMSpro interface. […]
Mass spectra were interpreted using Spectrum Mill software package v7.1 pre-Release (Broad Institute, Cambridge, Mass.). […] MS/MS spectra were searched against a protein sequence database that contained 90,904 entries, including all UCSC Genome Browser genes with hg19 annotation of the genome and its protein coding transcripts (52,788 entries), common human virus sequences (30,181 entries), recurrently mutated proteins observed in tumors from 26 tissues (4,595 entries), 264 common laboratory contaminants as well as protein sequences containing somatic mutations detected in MCC cell lines (3,076 entries). […]

surface HLA class I = test: USP7 inhibitor treatment of MCC lines, surface HLA-I by flow cytometry; assay type: cell-based, human; details: 3 days
USP7 = USP7 (Homo sapiens, UniProt Q93009); details: enantiomer control vs XL177A; cited from earlier work
autologous T cells = test: IFN-γ ELISpot with patient MCC-367 PBMCs; assay type: cell-based, human; details: 10 μg/ml peptide
Experimental: Matching patient peripheral blood mononuclear cells (PBMCs) from patient MCC-367 were thawed, and 10^7 cells per well were seeded in 24 well plates overnight. Cells were stimulated with 10 μg/ml of the LT antigen peptide […] (identified in the MCC-367 HLA peptidome, FIG. 3F) in complete DMEM supplemented with 10% Human serum and 20 ng/ml IL-7 (PeproTech). After 3 days of stimulation, cells were supplemented with 20 units/mL IL-2 (PeproTech). After 10 days of stimulation, cells were cytokine deprived overnight. 50,000 cells per well were stimulated in an IFN-γ ELISpot assay with 10 μg/ml of the […] peptide. DMSO and an HIV-GAG peptide were used as negative controls. CEF (Mabtech) and PHA (Sigma Aldrich) were used as positive controls (not shown). ELISpot and T cell culture methods were described in detail previously.

[3] = 100 nM, three lines (MCC-277, -290, -301)
[4] = 100 nM, two MCPyV+ lines (MCC-301 and -277)

Sequence of USP7 (Q93009 whole entry): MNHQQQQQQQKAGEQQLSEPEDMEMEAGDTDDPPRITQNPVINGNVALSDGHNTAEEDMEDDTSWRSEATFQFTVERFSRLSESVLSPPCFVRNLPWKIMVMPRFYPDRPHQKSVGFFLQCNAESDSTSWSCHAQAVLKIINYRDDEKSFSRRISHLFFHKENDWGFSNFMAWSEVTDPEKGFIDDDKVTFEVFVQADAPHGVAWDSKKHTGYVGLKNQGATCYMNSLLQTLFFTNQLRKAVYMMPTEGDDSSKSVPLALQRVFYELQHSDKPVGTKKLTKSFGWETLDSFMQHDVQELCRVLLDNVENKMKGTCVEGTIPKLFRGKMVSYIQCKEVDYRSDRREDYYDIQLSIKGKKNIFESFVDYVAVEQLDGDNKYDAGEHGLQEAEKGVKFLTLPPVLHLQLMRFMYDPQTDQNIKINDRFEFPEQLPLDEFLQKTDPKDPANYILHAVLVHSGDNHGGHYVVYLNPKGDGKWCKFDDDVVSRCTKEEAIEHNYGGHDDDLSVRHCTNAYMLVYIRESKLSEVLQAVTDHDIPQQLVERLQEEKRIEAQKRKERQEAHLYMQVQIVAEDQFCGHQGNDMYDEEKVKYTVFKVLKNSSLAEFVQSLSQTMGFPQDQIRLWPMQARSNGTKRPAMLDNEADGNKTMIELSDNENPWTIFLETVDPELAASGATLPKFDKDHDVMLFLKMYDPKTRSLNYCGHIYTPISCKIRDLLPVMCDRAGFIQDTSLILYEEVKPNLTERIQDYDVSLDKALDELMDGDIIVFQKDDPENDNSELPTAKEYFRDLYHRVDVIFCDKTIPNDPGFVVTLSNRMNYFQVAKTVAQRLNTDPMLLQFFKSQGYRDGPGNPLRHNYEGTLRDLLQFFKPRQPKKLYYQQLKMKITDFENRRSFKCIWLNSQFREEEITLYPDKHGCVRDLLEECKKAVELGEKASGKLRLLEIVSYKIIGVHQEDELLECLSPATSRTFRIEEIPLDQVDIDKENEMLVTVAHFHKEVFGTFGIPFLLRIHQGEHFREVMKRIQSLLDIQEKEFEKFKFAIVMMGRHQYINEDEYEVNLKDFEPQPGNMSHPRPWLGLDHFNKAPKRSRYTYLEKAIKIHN

Question: With `CN1CCN(CCC(=O)Nc2ccc3c(=O)n(CC4(O)CCN(C(=O)[C@@H](CCCNC(=O)c5ccc6c(Cl)c7c(nc6c5)CCCC7)Cc5ccccc5)CC4)cnc3c2)CC1` [XL177A] as the compound, how does the “surface HLA-I relative to XL177B and DMSO” value (surface HLA-I; MKL-1 TP53-KO lines) read?
Answer: increased

Question: And the “surface HLA-I relative to XL177B and DMSO” value (surface HLA-I; MKL-1 TP53-WT lines)?
Answer: increased

Question: And the cell cycle shift [1]?
Answer: slight cell cycle shifts from S to G1 phase

Question: What about the “abundance of displayed HLA-I peptides compared to XL177B and untreated cells” value [2] of the same compound?
Answer: higher abundances of displayed peptides

Question: And the “frequency of peptides displayed on each respective HLA-I gene (HLA-A, -B, -C)” value [2]?
Answer: did not affect

Question: And the “percent of significantly differing peptides more abundant compared to untreated cells” value ([2]; out of 282 peptides)?
Answer: 95.7%

Question: What about the “number of peptides more abundant compared to untreated cells” value ([2]; out of 282 peptides whose abundance significantly differed (P<0.05)) of the same compound?
Answer: 270 peptides

Question: And the “mean fold increase in expression of surface HLA class I relative to DMSO” value (surface HLA class I; [3])?
Answer: 1.89 fold

Question: What about the “range of fold increase in expression of surface HLA class I relative to DMSO” value (surface HLA class I; [3]) of the same compound?
Answer: 1.60-2.27 fold

Question: What about the “mean fold increase in expression of surface HLA-I relative to DMSO” value (surface HLA class I; [4]) of the same compound?
Answer: 2.0 fold

Question: And the “range of fold increase in expression of surface HLA-I relative to DMSO” value (surface HLA class I; [4])?
Answer: 1.78-2.27 fold

Question: What about the “increase in HLA-I levels in MCC-290” value (surface HLA class I; MCC-290 (MCPyV−)) of the same compound?
Answer: more modest increase

Question: And the “increase in HLA I expression in MCC-320” value (surface HLA class I; MCC-320 (MCPyV−))?
Answer: did not exhibit a statistically significant increase and not

Question: Which “potency relative to XL177A (fold less potent)” value (USP7) does the source give for `CN1CCN(CCC(=O)Nc2ccc3c(=O)n(CC4(O)CCN(C(=O)[C@H](CCCNC(=O)c5ccc6c(Cl)c7c(nc6c5)CCCC7)Cc5ccccc5)CC4)cnc3c2)CC1` [XL177B] here?
Answer: 500 fold

Question: With “TSDKAIELY [peptide derived from the OBD domain of MCPyV LT, detected in the MCC-367 HLA peptidome]” as the compound, how does the “reactivity of autologous T cells by ELISpot” value (autologous T cells) read?
Answer: confirmed
